This is an account of results in the supplement of paper PMC10307832.

Common to all, as to assay: relative viability (nuclei count vs DMSO), 5 days (fraction); higher = more cells survive
Compound in test [1]: COc1nc(N)nc2c1ncn2[C@@H]1O[C@H](CO)[C@@H](O)[C@@H]1O [Nelarabine] + CC(=O)Nc1cccc(-n2c(=O)n(C3CC3)c(=O)c3c(Nc4ccc(I)cc4F)n(C)c(=O)c(C)c32)c1 [Trametinib] (partner 0.02 µM)
An outline of the steps:
(§1)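 Cells from lung cancer lines were seeded into 1536-well plates and, one day later, dosed by pin tool. Treatments were either a single drug or a fixed dose of an anchor drug with five library-drug doses (not always all listed) in √10 steps. After 5 days, nuclei were stained in a one-step fixation (final 0.05% Triton X-100, 1% formaldehyde, 1 ug/ml Hoechst) and counted on 4× images, and relative viability is the treated-to-vehicle nuclei ratio, as the median of duplicate plates.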

Compound in test [2]: C=CCn1c(=O)c2cnc(Nc3ccc(N4CCN(C)CC4)cc3)nc2n1-c1cccc(C(C)(C)O)n1 [Adavosertib] + O=C(c1cc(Cc2n[nH]c(=O)c3ccccc23)ccc1F)N1CCN(C(=O)C2CC2)CC1 [Olaparib] (partner 8 µM)
In outline: as §1

Compound in test [3]: COc1nc(N)nc2c1ncn2[C@@H]1O[C@H](CO)[C@@H](O)[C@@H]1O [Nelarabine] + COc1cccc2cc(-c3nc([C@H]4CC[C@H](C(=O)O)CC4)n4ncnc(N)c34)[nH]c12 [OSI-027] (partner 0.5 µM)
In outline: as §1

Compound in test [4]: COc1nc(N)nc2c1ncn2[C@@H]1O[C@H](CO)[C@@H](O)[C@@H]1O [Nelarabine] + C[C@@H](Oc1cc(-c2cnn(C3CCNCC3)c2)cnc1N)c1c(Cl)ccc(F)c1Cl [Crizotinib] (partner 1 µM)
In outline: as §1

In the case of LCLC-97TM1, the relative viability was determined as 0.189 in test [1] (first compound 0.1 µM); 0.203 in test [1] (first compound 0.3162 µM); 0.224 in test [1] (first compound 1 µM); 0.412 in test [2] (first compound 0.01 µM); 0.369 in test [2] (first compound 0.03162 µM); 0.439 in test [2] (first compound 0.1 µM). For the same cell line, the relative viability was 0.303 in test [2] (first compound 0.3162 µM); 0.713 in test [3] (first compound 0.01 µM); 0.483 in test [3] (first compound 0.03162 µM); 0.357 in test [3] (first compound 0.1 µM); 0.527 in test [3] (first compound 0.3162 µM); 0.56 in test [3] (first compound 1 µM). Besides, the relative viability in test [4] (first compound 0.01 µM) was 0.481; in test [4] (first compound 0.03162 µM), 0.364; in test [4] (first compound 0.1 µM), 0.199; in test [4] (first compound 0.3162 µM), 0.401; in test [4] (first compound 1 µM), 0.383.

Regarding NCI-H2126, the relative viability in test [1] (first compound 0.01 µM) came to 0.666; in test [1] (first compound 0.03162 µM), 0.612; in test [1] (first compound 0.1 µM), 0.599; in test [1] (first compound 0.3162 µM), 0.52; in test [1] (first compound 1 µM), 0.538; in test [2] (first compound 0.01 µM), 0.909. Further, the relative viability in test [2] (first compound 0.03162 µM) came to 0.939; in test [2] (first compound 0.1 µM), 0.915; in test [2] (first compound 0.3162 µM) it was 0.919; in test [3] (first compound 0.01 µM), 0.761; in test [3] (first compound 0.03162 µM), 0.724; in test [3] (first compound 0.1 µM), 0.641. Moreover, the relative viability was 0.771 in test [3] (first compound 0.3162 µM); 0.66 in test [3] (first compound 1 µM); 1.19 in test [4] (first compound 0.01 µM); 1.07 in test [4] (first compound 0.03162 µM); 1.01 in test [4] (first compound 0.1 µM); 1.05 in test [4] (first compound 0.3162 µM). Besides, the relative viability in test [4] (first compound 1 µM) stood at 0.998.

With PC-14, the relative viability in test [1] (first compound 0.01 µM) came out at 0.894; in test [1] (first compound 0.03162 µM), 0.87; in test [1] (first compound 0.1 µM) it was 0.766; in test [1] (first compound 0.3162 µM) it was 0.844; in test [1] (first compound 1 µM), 0.774; in test [2] (first compound 0.01 µM) it was 0.44. Moreover, the relative viability in test [2] (first compound 0.03162 µM) was determined as 0.211; in test [2] (first compound 0.1 µM), 0.176; in test [2] (first compound 0.3162 µM), 0.0727; in test [3] (first compound 0.01 µM), 1.41; in test [3] (first compound 0.03162 µM), 0.97; in test [3] (first compound 0.1 µM), 0.936. Also, the relative viability in test [3] (first compound 0.3162 µM) worked out at 1.22; in test [3] (first compound 1 µM), 1.05; in test [4] (first compound 0.01 µM) it was 0.909; in test [4] (first compound 0.03162 µM) it was 0.89; in test [4] (first compound 0.1 µM), 0.875; in test [4] (first compound 0.3162 µM), 0.832. Also, the relative viability in test [4] (first compound 1 µM) turned out to be 0.868.

Take NCI-H1355: the relative viability in test [1] (first compound 0.01 µM) was determined as 0.451; in test [1] (first compound 0.03162 µM), 0.343; in test [1] (first compound 0.1 µM), 0.43; in test [1] (first compound 0.3162 µM), 0.346; in test [1] (first compound 1 µM) it was 0.477; in test [2] (first compound 0.01 µM) it was 0.736. The relative viability in test [2] (first compound 0.03162 µM) turned out to be 0.698; in test [2] (first compound 0.1 µM), 0.757; in test [2] (first compound 0.3162 µM), 0.685; in test [3] (first compound 0.01 µM), 0.481; in test [3] (first compound 0.03162 µM) it was 0.434; in test [3] (first compound 0.1 µM), 0.367. Moreover, the relative viability was 0.363 in test [3] (first compound 0.3162 µM); 0.382 in test [3] (first compound 1 µM); 1.44 in test [4] (first compound 0.01 µM); 0.879 in test [4] (first compound 0.03162 µM); 1.02 in test [4] (first compound 0.1 µM); 1.15 in test [4] (first compound 0.3162 µM). Also, the relative viability in test [4] (first compound 1 µM) worked out at 1.08.

Turning to NCI-H460, the relative viability in test [1] (first compound 0.01 µM) is 0.124; in test [1] (first compound 0.03162 µM), 0.213; in test [1] (first compound 0.1 µM) it was 0.0809; in test [1] (first compound 0.3162 µM), 0.259; in test [1] (first compound 1 µM), 0.164; in test [2] (first compound 0.01 µM) it was 0.391. The relative viability in test [2] (first compound 0.03162 µM) was found to be 0.376; in test [2] (first compound 0.1 µM), 0.308; in test [2] (first compound 0.3162 µM), 0.405; in test [3] (first compound 0.01 µM), 1.06; in test [3] (first compound 0.03162 µM), 1.08; in test [3] (first compound 0.1 µM), 0.971. Also, the relative viability in test [3] (first compound 0.3162 µM) was 1.08; in test [3] (first compound 1 µM), 0.79; in test [4] (first compound 0.01 µM), 1.32; in test [4] (first compound 0.03162 µM), 1.1; in test [4] (first compound 0.1 µM), 1.02; in test [4] (first compound 0.3162 µM), 1.08. Further, in test [4] (first compound 1 µM), the relative viability came to 1.05.

Turning to NCI-H1651, the relative viability worked out at 0.948 in test [1] (first compound 0.01 µM); 0.909 in test [1] (first compound 0.03162 µM); 0.842 in test [1] (first compound 0.1 µM); 0.827 in test [1] (first compound 0.3162 µM); 0.821 in test [1] (first compound 1 µM); 0.17 in test [2] (first compound 0.01 µM). Besides, the relative viability was 0.218 in test [2] (first compound 0.03162 µM); 0.139 in test [2] (first compound 0.1 µM); 0.16 in test [2] (first compound 0.3162 µM); 0.761 in test [3] (first compound 0.01 µM); 0.677 in test [3] (first compound 0.03162 µM); 0.727 in test [3] (first compound 0.1 µM). The relative viability was determined as 0.874 in test [3] (first compound 0.3162 µM); 0.631 in test [3] (first compound 1 µM); 0.959 in test [4] (first compound 0.01 µM); 0.818 in test [4] (first compound 0.03162 µM); 0.902 in test [4] (first compound 0.1 µM); 0.891 in test [4] (first compound 0.3162 µM). In addition, the relative viability in test [4] (first compound 1 µM) is 0.899.

As for NCI-H1650, the relative viability in test [1] (first compound 0.01 µM) stood at 0.513; in test [1] (first compound 0.03162 µM), 0.694; in test [1] (first compound 0.1 µM), 0.462; in test [1] (first compound 0.3162 µM), 0.818; in test [1] (first compound 1 µM), 0.562; in test [2] (first compound 0.01 µM), 0.714. In addition, the relative viability amounted to 0.708 in test [2] (first compound 0.03162 µM); 0.76 in test [2] (first compound 0.1 µM); 0.622 in test [2] (first compound 0.3162 µM); 0.713 in test [3] (first compound 0.01 µM); 0.619 in test [3] (first compound 0.03162 µM); 0.458 in test [3] (first compound 0.1 µM). Moreover, the relative viability in test [3] (first compound 0.3162 µM) was 0.767; in test [3] (first compound 1 µM), 0.61; in test [4] (first compound 0.01 µM) it was 1.07; in test [4] (first compound 0.03162 µM) it was 0.809; in test [4] (first compound 0.1 µM), 0.999; in test [4] (first compound 0.3162 µM), 0.981. Further, in test [4] (first compound 1 µM), the relative viability came out at 0.847.

NCI-H1734: the relative viability is 0.829 in test [1] (first compound 0.01 µM); 0.615 in test [1] (first compound 0.03162 µM); 0.666 in test [1] (first compound 0.1 µM); 0.666 in test [1] (first compound 0.3162 µM); 0.627 in test [1] (first compound 1 µM); 0.584 in test [2] (first compound 0.01 µM). Also, the relative viability in test [2] (first compound 0.03162 µM) is 0.613; in test [2] (first compound 0.1 µM) it was 0.562; in test [2] (first compound 0.3162 µM) it was 0.352; in test [3] (first compound 0.01 µM), 0.759; in test [3] (first compound 0.03162 µM), 0.609; in test [3] (first compound 0.1 µM), 0.547. Also, the relative viability came to 0.582 in test [3] (first compound 0.3162 µM); 0.619 in test [3] (first compound 1 µM); 0.694 in test [4] (first compound 0.01 µM); 0.668 in test [4] (first compound 0.03162 µM); 0.568 in test [4] (first compound 0.1 µM); 0.772 in test [4] (first compound 0.3162 µM). Moreover, in test [4] (first compound 1 µM), the relative viability came out at 0.804.
